Measurements: patent publication US20210228523A1, “MODULATORS OF SESTRIN-GATOR2 INTERACTION AND USES THEREOF” (Navitor Pharmaceuticals, Inc., priority 2017, published 2021)

Test system: Male Sprague Dawley rats
Assay: Forced swimming test (FST)
Type: in vivo, rat
Settings: for FST time spent immobile / decrease in FST time spent immobile vs Veh / decrease in FST time spent immobile vs Sal: Example G; for decrease in FST time spent immobile vs Veh / decrease in FST time spent immobile vs Sal: p<0.05
Description: Study Design. Twenty (20) male rats weighing between 175 and 200 g were randomized into 3 study groups (n=6-7/group), following a 5-day acclimation period. All rats were surgically implanted with bilateral IT cannulas in the PFC 2 weeks prior to dosing. […] Thirty minutes following the intrathecal infusions, either NV-5138 vehicle (Veh-NV, 0.5% methylcellulose/0.1% Tween-80) or NV-5138 (160 mg/kg) was administered by oral gavage. Each treatment group was assessed at the designated time following oral dosing in FST 24 hrs (day 1) LMA 48 hrs (day 2) and the NSFT 72 hrs (day 3 following a 20 hr period of fasting). LMA was measured to rule out overall changes in generally locomotor activity. The study design is presented in Table 11 with timeline of surgical procedures, test article administration and behavioral tests is provided in FIG. 20
Preparation of Test Articles. Rapamycin (Cell Signaling; #9904) was prepared in a solution of 10% DMSO (Veh-R) to a final concentration of 10 μM. R or Veh-R was administered bilaterally (0.005 nmol/0.5 μL per side) into the medial PFC via IT infusion 30 min prior to treatment with NV-5138 or Veh-NV by oral gavage. NV-5138 (lot #07) was prepared by dissolving in Veh (0.5% methylcellulose/0.1% Tween-80) at a concentration of 50 mg/mL. The dosing volume based on the weight of the animal (3.2 mL/kg) was administered by oral gavage to study animals in Groups 2 and 3.
Surgical Procedure and Administration of Rapamycin. Rats were steriotactically implanted with a guide cannula (22GA) into the medial PFC (coordinates from bregma: +3.2 AP, ±1.0 ML, -3.5 DV from dura). Surgical procedures were carried out under the anesthesia of Nembutal (i.p. 55 mg/kg). Postoperative care consisted in peri-surgical administration of carprofen (5 mg/kg) and topical triple antibiotic. After a 2-week recovery period, R (0.01 nmol in 1 μL for PFC infusion) or Veh-R was delivered at the rate of 0.25 μL/min with an injection cannula (26GA) protruding 0.5 mm beyond the guide cannula 30 min before oral administration of NV-5138 or Veh-NV.
Study Design. Forty-eight (48) male rats weighing between 175 and 200 g were randomized into 6 study groups (n=8/group), following a 5-day acclimation period. A single dose of all test articles was administered on day 0 and the behavioral tests were performed 3, 7 and 10 days later. Groups 1 and 2 were dosed on day 0 with NV-5138 (160 mg/kg by oral gavage) and Ket (10 mg/kg by i.p. injection), respectively and subjected to a FST on day 3. The rats in Group 3 and 4 received a single dose of the NV-5138 vehicle (Veh) or NV-5138 (160 mg/kg), respectively, by oral gavage on day 0. The rats in Group 5 and 6 received a single dose of the Ket vehicle (Sal) or Ket (10 mg/kg), respectively, by i.p. injection on day 0. The rats in groups 3-6 were subjected to a FST on day 7 and a NSFT on day 10. All rats in groups 3-6 were fasted the night before for 20 hours the NSFT.
Study Design. Twenty-four (24) male Sprague Dawley rats weighing between 175 and 200 g were randomized into 4 study groups (n=6/group), following a 5-day acclimation period. On study day minus 1 rats were subjected to a pre-swim. Beginning on study day 0, rats in Groups 2 received a dose of Ket (10 mg/kg) on alternate days (day 0, 2, 4, and 6) each by i.p. injection. The rats in Groups 1 received a daily dose of Veh by oral gavage for 7 days (days 0 to 6). The rats in Groups 3 and 4 received a daily dose of NV-5138 (40 or 80 mg/kg) for 7 days (days 0 to 6) each by oral gavage. All rats were subjected to the FST on day 7, 24 hrs after last dosing. On day 8, 48 hrs after last dosing, the LMA of all rats was measured in an open field. Rats were then fasted for 20 hrs and subjected to the NSFT on day 9 (72 hrs post-last dose).
Preparation of Test Articles. Ket (Sigma, cat #K1884) was dissolved in Sal at a concentration of 10 mg/mL. Injection volumes (i.p) of 1 mL/kg of Ket were administered to Group 2. […]

[1] = NV-5138 160 mg/kg oral single dose, 3 days after dose
[2] = NV-5138 160 mg/kg oral single dose, 7 days after dose
[3] = Ket 10 mg/kg i.p. single dose, 3 days after dose
[4] = Ket 10 mg/kg i.p. single dose, 7 days after dose

| SMILES | FST immobility time (Example F, Veh-R IT infusion then NV-5138 160 mg/kg oral, 24 hrs after oral dosing) [s] | decrease in FST immobility time vs Veh-R/Veh-NV (Example F, Veh-R IT infusion then NV-5138 160 mg/kg oral, 24 hrs, p<0.0001) [%] | FST immobility time, R/NV-5138 vs Veh-R/Veh-NV (Example F, rapamycin (R, 0.01 nmol) IT infusion into PFC 30 min before NV-5138 160 mg/kg oral, 24 hrs) | FST time spent immobile [1] [s] | decrease in FST time spent immobile vs Veh [1] [%] | FST time spent immobile [2] [s] | decrease in FST time spent immobile vs Veh [2] [%] | FST (Example I, NV-5138 80 mg/kg oral daily for 7 days, day 7, 24 hrs after last dosing) | FST time spent immobile [3] [s] | decrease in FST time spent immobile vs Sal [3] [%] | FST time spent immobile [4] [s] | decrease in FST time spent immobile vs Sal [4] [%] |
| --- | --- | --- | --- | --- | --- | --- | --- | --- | --- | --- | --- | --- |
| CC(C)(C[C@H](N)C(=O)O)C(F)F [NV-5138] | 144 ± 15 | 46 | lack of significant effect on immobility time | 87.9 ± 9.0 | 39 | 96.0 ± 11.3 | 34 | Significant effects |  |  |  |  |
| CNC1(c2ccccc2Cl)CCCCC1=O (stereo not drawn) [Ket, ketamine, reference compound] |  |  |  |  |  |  |  |  | 95.5 ± 7.8 | 31 | 95.0 ± 11.1 | 31 |
